Results on four molecules are retold here after ChEMBL document CHEMBL1159278, “An antimitotic and cytotoxic chalcone from Fissistigma lanuginosum” (J Nat Prod, 1995).

≈ marks a conversion by molar mass, not a printed value.

For one assay, the system named is KB. The assay can be described thus: Cytotoxicity against human KB cells. The assay is classed as functional, cell-based.
A short description of assay [1]: Inhibition of tubulin assembly into microtubules.

For `COc1c(O)c(OC)c(C(=O)[C@@H]2CC(CCC=C(C)C)=CC[C@H]2c2ccccc2)c(O)c1OC` [ISOFISSISTIN], the IC50 (as a rule, the concentration needed to halve the response being measured) in the assay on KB was found to be 0.15 µg/mL (≈ 0.321 µM).

Regarding `CC[C@]1(O)C[C@@H]2CN(CCc3c([nH]c4ccccc34)[C@@](C(=O)OC)(c3cc4c(cc3OC)N(C)[C@H]3[C@@](O)(C(=O)OC)[C@H](OC(C)=O)[C@]5(CC)C=CCN6CC[C@]43[C@@H]65)C2)C1` [VINBLASTINE], inhibition in assay [1] was half-maximal at 4 µM (IC50).

In assay [1], `COc1c(O)c(OC)c(C(=O)/C=C/c2ccccc2)c(O)c1OC` [PEDICIN] had an IC50 of 300 µM.

For the molecule `COc1c(O)c(OC)c(C(=O)[C@@H]2CC=C(CCC=C(C)C)C[C@H]2c2ccccc2)c(O)c1OC` [FISSISTIN], in the assay with KB, the midpoint of inhibition, the IC50, lay at 0.15 µg/mL (≈ 0.321 µM).
